# Reference: the supplement of paper PMC10307832
# What was measured:
# Test in all cases: relative viability (nuclei count vs DMSO), 5 days (fraction); higher = more cells survive
# [1] = compound: C1COCCN1C2=NC(=NC3=C2OC4=C3C=CC=N4)C5=CC(=CC=C5)NC(=O)C6=CN=C(C=C6)N + CC(=O)Nc1cccc(-n2c(=O)n(C3CC3)c(=O)c3c(Nc4ccc(I)cc4F)n(C)c(=O)c(C)c32)c1 [Trametinib] (partner 0.02 µM)
# Outline: (§1)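 After 5 days of treatment, lung cancer cells in 1536-well plates were fixed and stained in a single step (final 0.05% Triton X-100, 1% formaldehyde, 1 ug/ml Hoechst) and their nuclei counted on 4× images. Treatment had been applied by pin tool the day after seeding as one drug alone or as a fixed anchor-drug dose with five library-drug doses (not always all listed) in √10 steps. Relative viability is the nuclei count of treated wells divided by that of vehicle wells, and values are medians of duplicate plates.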
# SGI-1776 + Trametinib = compound: CN1CCC(CNc2ccc3ncc(-c4cccc(OC(F)(F)F)c4)n3n2)CC1 [SGI-1776] + CC(=O)Nc1cccc(-n2c(=O)n(C3CC3)c(=O)c3c(Nc4ccc(I)cc4F)n(C)c(=O)c(C)c32)c1 [Trametinib] (partner 0.02 µM)
# Outline: as §1
# Entinostat + AZD7762 = compound: Nc1ccccc1NC(=O)c1ccc(CNC(=O)OCc2cccnc2)cc1 [Entinostat] + NC(=O)Nc1cc(-c2cccc(F)c2)sc1C(=O)N[C@H]1CCCNC1 [AZD7762] (partner 0.2 µM)
# Outline: as §1
# Entinostat + Olaparib = compound: Nc1ccccc1NC(=O)c1ccc(CNC(=O)OCc2cccnc2)cc1 [Entinostat] + O=C(c1cc(Cc2n[nH]c(=O)c3ccccc23)ccc1F)N1CCN(C(=O)C2CC2)CC1 [Olaparib] (partner 8 µM)
# Outline: as §1
Cell Line,relative viability ([1]; first compound 0.02 µM),relative viability ([1]; first compound 0.06325 µM),relative viability ([1]; first compound 0.2 µM),relative viability ([1]; first compound 0.6325 µM),relative viability ([1]; first compound 2 µM),relative viability (SGI-1776 + Trametinib; first compound 0.08 µM),relative viability (SGI-1776 + Trametinib; first compound 0.8 µM),relative viability (SGI-1776 + Trametinib; first compound 2.53 µM),relative viability (SGI-1776 + Trametinib; first compound 8 µM),relative viability (Entinostat + AZD7762; first compound 0.02 µM),relative viability (Entinostat + AZD7762; first compound 0.06325 µM),relative viability (Entinostat + AZD7762; first compound 0.2 µM),relative viability (Entinostat + AZD7762; first compound 0.6325 µM),relative viability (Entinostat + AZD7762; first compound 2 µM),relative viability (Entinostat + Olaparib; first compound 0.02 µM),relative viability (Entinostat + Olaparib; first compound 0.06325 µM),relative viability (Entinostat + Olaparib; first compound 0.2 µM),relative viability (Entinostat + Olaparib; first compound 0.6325 µM),relative viability (Entinostat + Olaparib; first compound 2 µM)
NCI-H23,0.337,0.322,0.359,0.409,0.197,0.328,0.29,0.372,0.304,0.377,0.294,0.251,0.137,0.121,0.282,0.242,0.237,0.179,0.12
NCI-H322M,0.449,0.519,0.521,0.412,0.475,0.524,0.506,0.485,0.487,0.591,0.64,0.958,0.731,0.621,0.722,0.952,0.887,0.815,0.618
NCI-H358,0.132,0.138,0.122,0.127,0.244,0.14,0.146,0.128,0.123,0.55,0.69,0.6,0.408,0.192,0.574,0.649,0.593,0.342,0.172
NCI-H441,0.453,0.423,0.29,0.337,0.312,0.497,0.51,0.5,0.294,1.05,0.883,0.715,0.281,0.196,0.625,0.467,0.317,0.18,0.113
NCI-H460,0.166,0.263,0.142,0.133,0.0197,0.127,0.162,0.208,0.154,0.65,0.651,0.559,0.233,0.0734,0.37,0.328,0.137,0.0676,0.0406
NCI-H522,0.797,0.901,0.681,0.758,0.592,0.81,0.789,0.723,0.798,0.779,0.846,0.85,1.07,0.796,0.58,0.713,0.582,0.686,0.494
NCI-H596,0.772,0.87,0.735,0.724,0.593,0.797,0.733,0.782,0.678,1.19,1.11,1.14,0.817,0.829,0.748,0.662,0.667,0.558,0.405
NCI-H647,0.414,0.483,0.419,0.378,0.234,0.621,0.441,0.56,0.323,0.49,0.557,0.55,0.186,0.0556,0.522,0.333,0.426,0.0646,0.0559
NCI-H650,0.923,1.05,0.951,0.888,0.796,1.09,1.01,0.965,0.869,1.12,0.95,1.08,0.823,0.325,0.43,0.425,0.363,0.21,0.171
NCI-H727,0.378,0.332,0.374,0.416,0.364,0.454,0.38,0.391,0.372,0.598,0.667,0.624,0.646,0.776,0.73,0.735,0.642,0.677,0.532
NCI-H838,0.52,0.529,0.463,0.41,0.298,0.519,0.534,0.414,0.385,0.993,0.973,0.814,0.917,0.712,0.819,0.79,0.759,0.452,0.201
NCI-H1355,0.452,0.427,0.395,0.367,0.372,0.444,0.408,0.408,0.41,0.634,0.789,0.618,0.546,0.369,0.669,0.698,0.647,0.535,0.356
NCI-H1395,0.962,0.956,0.898,1.02,0.875,1.16,0.984,0.951,0.887,0.39,0.386,0.395,0.373,0.356,0.445,0.466,0.423,0.398,0.408
NCI-H1437,0.492,0.551,0.511,0.419,0.224,0.565,0.524,0.361,0.301,1.12,0.947,0.781,0.396,0.369,0.491,0.378,0.309,0.228,0.196
NCI-H1648,0.54,0.534,0.456,0.405,0.482,0.397,0.441,0.415,0.398,0.789,0.715,0.725,0.566,0.485,0.769,0.624,0.673,0.615,0.512
NCI-H1651,0.842,0.867,0.836,0.818,0.731,0.806,0.852,0.843,0.746,0.452,0.48,0.377,0.394,0.245,0.2,0.199,0.199,0.174,0.154
NCI-H1666,1.04,0.865,0.753,0.751,0.694,0.95,0.846,0.935,0.842,1.07,0.918,0.812,0.835,0.519,0.81,0.759,0.723,0.669,0.539

Cell Line,relative viability ([1]; first compound 0.02 µM),relative viability ([1]; first compound 0.06325 µM),relative viability ([1]; first compound 0.2 µM),relative viability ([1]; first compound 0.6325 µM),relative viability ([1]; first compound 2 µM),relative viability (SGI-1776 + Trametinib; first compound 0.08 µM),relative viability (SGI-1776 + Trametinib; first compound 0.8 µM),relative viability (SGI-1776 + Trametinib; first compound 2.53 µM),relative viability (SGI-1776 + Trametinib; first compound 8 µM),relative viability (Entinostat + AZD7762; first compound 0.02 µM),relative viability (Entinostat + AZD7762; first compound 0.06325 µM),relative viability (Entinostat + AZD7762; first compound 0.2 µM),relative viability (Entinostat + AZD7762; first compound 0.6325 µM),relative viability (Entinostat + AZD7762; first compound 2 µM),relative viability (Entinostat + Olaparib; first compound 0.02 µM),relative viability (Entinostat + Olaparib; first compound 0.06325 µM),relative viability (Entinostat + Olaparib; first compound 0.2 µM),relative viability (Entinostat + Olaparib; first compound 0.6325 µM),relative viability (Entinostat + Olaparib; first compound 2 µM)
NCI-H1734,0.657,0.816,0.67,0.635,0.512,0.686,0.742,0.786,0.603,0.5,0.476,0.364,0.259,0.244,0.0279,0.637,0.621,0.563,0.356
NCI-H1755,0.741,0.827,0.741,0.754,0.617,0.802,0.741,0.762,0.651,0.406,0.486,0.493,0.405,0.355,0.877,0.816,0.598,0.458,0.377
NCI-H1792,0.451,0.477,0.368,0.374,0.231,0.446,0.446,0.437,0.324,0.731,0.747,0.465,0.236,0.153,0.488,0.358,0.483,0.133,0.0504
NCI-H1793,0.55,0.371,0.366,0.46,0.355,0.418,0.518,0.589,0.444,0.508,0.643,0.302,0.23,0.302,0.929,0.959,0.743,0.681,0.236
NCI-H1915,0.3,0.313,0.298,0.218,0.281,0.317,0.281,0.309,0.277,0.713,0.694,0.716,0.526,0.286,0.244,0.274,0.23,0.21,0.144
NCI-H1944,0.378,0.453,0.451,0.382,0.377,0.389,0.408,0.426,0.378,0.413,0.463,0.394,0.259,0.238,0.373,0.323,0.216,0.177,0.172
NCI-H1975,0.315,0.362,0.307,0.348,0.31,0.389,0.33,0.325,0.313,0.628,0.612,0.669,0.476,0.395,0.73,0.637,0.484,0.324,0.211
NCI-H1993,0.521,0.583,0.571,0.421,0.526,0.576,0.496,0.765,0.538,0.777,0.741,0.69,0.468,0.366,1.25,1.11,1.01,0.892,0.375
NCI-H2085,0.586,0.582,0.359,0.549,0.359,0.665,0.612,0.511,0.453,0.965,0.93,0.909,0.683,0.692,0.755,0.726,0.717,0.592,0.378
NCI-H2087,0.209,0.178,0.234,0.193,0.173,0.151,0.164,0.16,0.17,1.22,0.975,1.04,1.03,0.355,0.498,0.554,0.511,0.329,0.206
NCI-H2126,0.592,0.569,0.618,0.547,0.45,0.585,0.572,0.293,0.472,0.936,1.03,1.01,0.737,0.495,0.953,0.925,0.886,0.742,0.539
NCI-H2170,0.936,0.987,0.84,0.919,0.399,0.925,0.924,0.855,0.912,0.876,0.878,0.825,0.602,0.193,0.565,0.557,0.515,0.341,0.215
NCI-H2342,0.743,0.963,0.807,0.805,0.79,0.891,0.779,0.809,0.769,0.514,0.569,0.507,0.428,0.398,0.401,0.477,0.447,0.356,0.308
NCI-H2347,0.302,0.264,0.289,0.314,0.258,0.323,0.278,0.3,0.277,0.741,0.755,0.576,0.378,0.255,0.636,0.537,0.455,0.35,0.32
NCI-H2405,0.478,0.722,0.672,0.553,0.418,0.679,0.595,0.568,0.398,0.795,0.896,0.704,0.641,0.495,0.843,0.895,0.861,0.72,0.623
NCI-H3122,0.275,0.249,0.233,0.229,0.175,0.238,0.19,0.274,0.244,1.03,1.01,1.15,0.971,0.805,0.653,0.622,0.604,0.517,0.452
